For data set [1], the system named is Ba/F3-KDR-transfected cells. Put plainly: Ba/F3-KDR (minus IL3 or plus IL3) cellular proliferation assay, Alamar Blue. It is filed as cell-based. The following applies: for IC50: read-out: BAF3-KDR (PLUS IL3 Alamar Blue pIC50) (converted). The method, boiled down: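 Ba/F3-KDR cells, 20000 per well, exposed to compounds (10 μM to 0.1 nM) for 24 h at 37°C in RPMI/10% FBS, then Alamar Blue for 4 h; fluorescence ex 540/em 590 nm gives IC50 and pIC50. Counterscreen run with 10 ng/ml murine IL3.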

The subject of data set [2] is Ba/F3-FGFR1-transfected cells. The data set is described as follows: Ba/F3-FGFR1 (minus IL3 or plus IL3) cellular proliferation assay, Alamar Blue. It is filed as cell-based. The following applies: plus IL3 (10 ng/ml murine IL3, counterscreen), 24 hours. The method, boiled down: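 Ba/F3-FGFR1 cells (20000/well) were treated with compound (10 μM–0.1 nM) for 24 h at 37 °C. Alamar Blue was then added for 4 h, with fluorescence read at ex 540/em 590 nm to give IC50/pIC50. A counterscreen was run with 10 ng/ml murine IL3.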
Background: Alamar Blue is a resazurin reagent that responds to reducing activity.

For data set [3], the system named is Ba/F3-Flt3-transfected cells. Put plainly: Ba/F3-Flt3 (minus IL3 or plus IL3) cellular proliferation assay, Alamar Blue. It counts as cell-based. The following applies: plus IL3 (10 ng/ml murine IL3, counterscreen), 24 hours. The procedure: Ba/F3-Flt3 (Minus IL3 or Plus IL3) (Cellular Proliferation Assay)
In a 384 well plate, 100 nl of compound dilution in DMSO was sprayed before adding 50 μl cell culture medium (phenol red free RPMI-1640, 10% FBS, 2 mM L-Glutamine and 50 μg/ml Gentamycin) containing 20000 cells per well of Ba/F3-Flt3-transfected cells. Cells were put in an incubator at 37° C. and 5% CO2. After 24 hours, 10 μl of Alamar Blue solution (0.5 mM K3Fe(CN)6, 0.5 mM K4Fe(CN)6, 0.15 mM Resazurin and 100 mM Phosphate Buffer) was added to the wells, incubated for 4 hours at 37° C. and 5% CO2 before RFU's (Relative Fluorescence Units) (ex. 540 nm., em. 590 nm.) were measured in a fluorescence plate reader.
In this assay, the inhibitory effect of different compound concentrations (range 10 μM to 0.1 nM) was determined and used to calculate an IC50 (M) and pIC50 (−log IC50) value. As a counterscreen the same experiment was performed in the presence of 10 ng/ml murine IL3.

Setting [4] is: plus IL3 (10 ng/ml murine IL3, counterscreen), 24 hours, Alamar Blue.

Where two headings read alike, the source gives them in different places. Bounds are passed on as bounds.

With `COc1cc(OC)cc(N(CC#Cc2ncccc2OC)c2ccc3ncc(-c4cnn(C)c4)cc3c2)c1` [Compound 17], the IC50 in data set [1] (setting [4]) is over 10 µM.

With `COc1cc(OC)cc(N(CCCO)c2ccc3ncc(-c4cnn(C)c4)cc3c2)c1` [Compound 4], the IC50 in data set [1] (setting [4]) is over 10 µM.

In the case of `COc1cc(Nc2ccc3ncc(-c4cnn(C5CCCCO5)c4)cc3c2)cc(OC)c1` (centres unmarked) [Int. 8], the IC50 in data set [1] (setting [4]) is over 10 µM.

One may read the melting point as the temperature, or range, at which the solid turns liquid. As to `COc1cc(OC)cc(N(CCO)c2ccc3ncc(-c4cnn(C)c4)cc3c2)c1` [Compound 3], the melting point fell in the range of 195 to 196 °C. The IC50 in data set [1] (setting [4]) is over 10 µM.

For `COc1cc(OC)cc(N(CCNC(C)C)c2ccc3ncc(-c4cn[nH]c4)cc3c2)c1` [Compound 21], the IC50 in data set [1] (setting [4]) is over 10 µM.

Turning to `COc1cc(OC)cc(N(CC2CCN(c3nccc(OC)n3)C2)c2ccc3ncc(-c4cnn(C)c4)cc3c2)c1` (centres unmarked) [Compound 7], the melting point worked out at 132 °C. Moreover, the IC50 in data set [1] (setting [4]) was over 10 µM.

In the case of `COc1cc(OC)cc(N(CC(O)C(F)(F)F)c2ccc3ncc(-c4cnn(C)c4)cc3c2)c1` (single isomer, unassigned) [Compound 24], in data set [1] (setting [4]), the IC50 is over 10 µM.

With `COc1cc(OC)cc(N(CCCN2CCCC2CNS(=O)(=O)C(F)(F)F)c2ccc3ncc(-c4cnn(C)c4)cc3c2)c1` (centres unmarked) [Compound 47], in data set [1] (setting [4]), the IC50 was over 10 µM.

Turning to `COc1cc(OC)cc(N(CC#Cc2nccc(OC)n2)c2ccc3ncc(-c4cnn(C)c4)cc3c2)c1` [Compound 16], the melting point was determined as 203 °C.

Turning to `C#CCN(c1cc(OC)cc(OC)c1)c1ccc2ncc(-c3cnn(C)c3)cc2c1` [Compound 6], in data set [1] (setting [4]), the IC50 was over 10 µM.

With `COc1cc(OC)cc(N(Cc2nccn2S(=O)(=O)N(C)C)c2ccc3ncc(-c4cnn(C)c4)cc3c2)c1` [Compound 9], the IC50 in data set [1] (setting [4]) is over 10 µM.

Consider `COc1cc(OC)cc(N(CC#Cc2nccn2C)c2ccc3ncc(-c4cnn(C)c4)cc3c2)c1` [Compound 48], for which, in data set [1] (setting [4]), the IC50 was over 10 µM.

Take `COc1cc(OC)cc(N(Cc2ncc[nH]2)c2ccc3ncc(-c4cnn(C)c4)cc3c2)c1` [Compound 18]: the melting point amounted to 196 °C. The IC50 in data set [1] (setting [4]) was over 10 µM.

As for `COc1cc(OC)cc(N(Cc2nccn2S(=O)(=O)N(C)C)c2ccc3ncc(-c4ccncc4)cc3c2)c1` [Compound 58], in data set [1] (setting [4]), the IC50 is over 10 µM.

Take `COc1cc(OC)cc(N(Cc2ncc[nH]2)c2ccc3ncc(-c4cccnc4)cc3c2)c1` [Compound 59]: the IC50 in data set [1] (setting [4]) is over 10 µM.

In the case of `COc1cc(OC)cc(N(CC(O)C(F)(F)F)c2ccc3ncc(-c4cnn(C)c4)cc3c2)c1` (single isomer, unassigned) [Compound 25], in data set [2], the “BAF3-FGFR1 (PLUS IL3 pIC50)” value is reported as under 5. In addition, in data set [1] (setting [4]), the “BAF3-KDR (PLUS IL3 Alamar Blue pIC50)” value is reported as under 5. In addition, in data set [3], the “BAF3-FLT3 (PLUS IL3 Alamar Blue pIC50)” value is reported as under 5.

On to `COc1cc(OC)cc(N(CCCN)c2ccc3ncc(-c4cnn(C)c4)cc3c2)c1` [Compound 11], for which the IC50 in data set [1] (setting [4]) was over 10 µM.

For `COc1cc(OC)cc(N(Cc2ncccn2)c2ccc3ncc(-c4cnn(C)c4)cc3c2)c1` [Compound 8], the melting point amounted to 151 °C. For the same molecule, the IC50 in data set [1] (setting [4]) is over 10 µM.

In turn, `COc1cc(OC)cc(C(O)c2ccc3ncc(-c4cnn(C)c4)cc3c2)c1` (centres unmarked) [Compound 12] yielded a melting point of 184 to 193 °C. Moreover, in data set [1] (24 h), the IC50 is over 10 µM.

In turn, `COc1cc(OC)cc(N(CCNC(C)C)c2ccc3ncc(-c4cnn(CCS(C)(=O)=O)c4)cc3c2)c1` [Compound 14] gave a melting point of 129 °C. Also, the IC50 in data set [1] (setting [4]) was over 10 µM.

For `COc1cc(OC)cc(N(CCNC(C)C)c2ccc3ncc(-c4cnn(C5CCCCO5)c4)cc3c2)c1` (centres unmarked) [Compound 22], the IC50 in data set [1] (setting [4]) is over 10 µM.

For the origin of these results see patent publication US10039759B2, “Quinolines as FGFR kinase modulators” (priority 2011, dated 2018).
